Read-outs that look alike come from different tables or passages of the source.
Key:
ChE = details: cited from earlier work
recombinant normal BuChE = biological target: T1, recombinant normal BuChE (Homo sapiens, UniProt P06276); test: Inactivation by carbamate inhibitors, normal BuChE; type: biochemical; details: for inactivation rate compared with AChE: common BuChE; for second order rate constant ki for inactivation: recombinant normal BuChE, inhibitor concentration in parentheses in table
T1 construct: made in house; host or cells: Xenopus oocytes injected with in vitro transcribed mRNA
T1 sequence (P06276 29-602): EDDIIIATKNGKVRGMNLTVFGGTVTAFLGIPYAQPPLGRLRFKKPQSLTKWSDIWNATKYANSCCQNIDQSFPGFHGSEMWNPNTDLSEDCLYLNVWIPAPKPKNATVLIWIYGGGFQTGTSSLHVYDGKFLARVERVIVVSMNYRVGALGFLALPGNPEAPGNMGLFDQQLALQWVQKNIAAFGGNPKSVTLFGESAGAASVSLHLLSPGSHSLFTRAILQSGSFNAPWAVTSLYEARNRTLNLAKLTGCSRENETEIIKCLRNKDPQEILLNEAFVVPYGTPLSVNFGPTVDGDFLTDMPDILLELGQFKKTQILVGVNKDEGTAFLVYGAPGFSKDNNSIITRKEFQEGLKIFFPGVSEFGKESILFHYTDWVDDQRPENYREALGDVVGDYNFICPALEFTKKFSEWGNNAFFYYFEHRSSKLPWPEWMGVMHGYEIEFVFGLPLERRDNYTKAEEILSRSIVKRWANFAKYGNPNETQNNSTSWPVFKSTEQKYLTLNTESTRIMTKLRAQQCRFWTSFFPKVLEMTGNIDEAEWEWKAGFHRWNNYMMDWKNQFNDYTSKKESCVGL
Source text: (§1) reagent concentration (in parentheses), to calculate second order rate

[1] = system: serum "atypical" BuChE (G/G); test: Inactivation of immobilized serum BuChE, "atypical"; type: biochemical, human; details: for rate of irreversible inactivation versus normal: "atypical" serum BuChE
recombinant human AChE = test: Spontaneous reactivation after complete inhibition, AChE; type: biochemical; details: 45 minutes; AChE
"atypical" BuChE [2] = biological target: T2, "atypical" BuChE (Homo sapiens, UniProt P06276, D98G)
Target sequence in this assay (P06276 29-602 D98G): as the sequence (P06276 29-602) above, with D70G counted along it
Description: Recombinant normal and "atypical" BuChE were produced in Xenopus oocytes microinjected with in vitro transcribed BuChEmRNAs prepared from the corresponding cDNA types (Neville et al, 1990a).
Free binding sites were blocked with PBS-T buffer (144 mM NaCl, 20 mM Na phosphate pH 7.4, 0.05% Tween 20 and 0.01% Tymerosal) for 60 minutes at 37° C. […] Plates were washed three times with PBS-T prior to use.
Inactivation and reactivation measurements: Antibody-immobilized enzymes were exposed to the tested anti-ChEs in PBS-T buffer for varying times (0.5 to 80 minutes) following an initial determination of catalytic activities. At the noted time points, plates were washed three times with PBS-T and remaining substrate hydrolysis rates were determined (Loewenstein et al., 1993a). Spontaneous reactivation was measured for immobilized recombinant ChEs following complete inhibition, three washes with PBS-T, and subsequent incubation for the noted time and activity determination.

"atypical" BuChE [3] = biological target: T2, "atypical" BuChE; details: cited from earlier work
Target sequence in this assay (P06276 29-602 D98G limits assumed): as the sequence (P06276 29-602) above, with D70G counted along it

AD patients = details: in vivo; cited from earlier work
serum normal BuChE (D/D) = test: Inactivation of immobilized serum BuChE, normal; type: biochemical, human; details: 30 minutes; normal enzyme
[4] = system: heterozygous serum BuChE (D/G); test: Inactivation of immobilized serum BuChE, heterozygote; type: biochemical, human; details: 30 minutes
[5] = system: recombinant human ChEs (all of the examined enzymes); test: Spontaneous reactivation after complete inhibition, all enzymes; type: biochemical
AChE (E6) = AChE (E6) (Homo sapiens, UniProt P22303); test: Inactivation by carbamate inhibitors, AChE E6; type: biochemical; design: made in house; host or cells: Xenopus oocytes injected with ACHE DNA; details: inhibitor concentration in parentheses in table
Sequence of AChE (E6) (P22303 32-614): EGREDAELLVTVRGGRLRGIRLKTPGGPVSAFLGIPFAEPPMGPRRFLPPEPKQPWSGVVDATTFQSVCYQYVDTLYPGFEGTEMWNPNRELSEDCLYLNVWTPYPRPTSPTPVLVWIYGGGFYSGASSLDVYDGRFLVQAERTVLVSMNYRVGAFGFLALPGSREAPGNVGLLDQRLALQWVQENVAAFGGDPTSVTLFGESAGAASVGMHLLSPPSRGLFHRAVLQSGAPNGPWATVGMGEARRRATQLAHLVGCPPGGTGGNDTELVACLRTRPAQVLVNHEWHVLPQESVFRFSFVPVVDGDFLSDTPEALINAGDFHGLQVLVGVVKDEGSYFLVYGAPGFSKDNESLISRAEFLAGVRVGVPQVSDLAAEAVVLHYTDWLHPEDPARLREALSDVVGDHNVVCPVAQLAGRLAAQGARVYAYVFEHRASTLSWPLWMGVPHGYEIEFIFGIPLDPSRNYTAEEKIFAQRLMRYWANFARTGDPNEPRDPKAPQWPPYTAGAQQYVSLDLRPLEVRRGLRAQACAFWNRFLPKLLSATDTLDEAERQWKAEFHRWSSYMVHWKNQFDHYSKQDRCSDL
Source text: as §1

AChE (E5) = AChE (E5) (Homo sapiens, UniProt P22303); test: Inactivation by carbamate inhibitors, AChE E5; type: biochemical; design: made in house; host or cells: Xenopus oocytes injected with ACHE DNA; details: inhibitor concentration in parentheses in table
Sequence of AChE (E5) (P22303-4 with tags, fused parts or gaps limits assumed): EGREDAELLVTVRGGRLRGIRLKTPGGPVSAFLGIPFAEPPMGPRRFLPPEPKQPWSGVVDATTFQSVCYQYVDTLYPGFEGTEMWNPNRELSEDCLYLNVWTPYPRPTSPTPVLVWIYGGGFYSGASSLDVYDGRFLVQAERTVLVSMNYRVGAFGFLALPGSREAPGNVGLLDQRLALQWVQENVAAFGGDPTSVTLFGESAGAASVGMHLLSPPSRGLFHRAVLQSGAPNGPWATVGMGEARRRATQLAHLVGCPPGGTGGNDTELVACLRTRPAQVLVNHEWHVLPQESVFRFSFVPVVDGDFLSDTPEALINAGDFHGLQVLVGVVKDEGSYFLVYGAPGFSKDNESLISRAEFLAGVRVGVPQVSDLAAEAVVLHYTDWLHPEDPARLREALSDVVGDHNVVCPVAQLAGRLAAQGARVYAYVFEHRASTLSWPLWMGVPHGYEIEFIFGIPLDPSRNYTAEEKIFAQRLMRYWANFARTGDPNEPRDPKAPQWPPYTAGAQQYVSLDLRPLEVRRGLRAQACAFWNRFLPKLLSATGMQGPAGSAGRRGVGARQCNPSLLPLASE
Source text: as §1

Rec. BuChE D/D (normal) = biological target: T3, Rec. BuChE D/D (normal) (Homo sapiens, UniProt P06276); test: Inhibition by cocaine / α-solanine, recombinant D/D; type: biochemical
T3 construct: made in house; host or cells: Xenopus oocytes (microinjected in vitro transcribed mRNA)
T3 sequence (P06276 29-602): as the sequence (P06276 29-602) above

[6] = system: Rec. BuChE D/G (1:1 mixture); type: biochemical, human; details: read-out: IC50 α-solanine
[7] = biological target: T4, Rec. BuChE G/G ("atypical") (Homo sapiens, UniProt P06276, D98G); test: Inhibition by cocaine / α-solanine, recombinant G/G; type: biochemical
T4 construct: made in house; host or cells: Xenopus oocytes (microinjected in vitro transcribed mRNA)
T4 sequence (P06276 29-602 D98G): as the sequence (P06276 29-602) above, with D70G counted along it

Serum BuChE D/D (normal) = biological target: T5, Serum BuChE D/D (normal) (Homo sapiens, UniProt P06276); test: Inhibition by cocaine / α-solanine, serum D/D; type: biochemical
T5 construct: with enzyme from normal serum; from tissue; host or cells: human serum, normal homozygote
T5 sequence (P06276 29-602): as the sequence (P06276 29-602) above

[8] = system: Serum BuChE D/G (heterozygote); type: biochemical, human; details: read-out: IC50 α-solanine
[9] = biological target: T6, Serum BuChE G/G ("atypical") (Homo sapiens, UniProt P06276, D98G); test: Inhibition by cocaine / α-solanine, serum G/G; type: biochemical
T6 construct: applicants prepared serum from an individual who had experienced succinylcholine-induced apnea; from tissue; host or cells: human serum, homozygous carrier of the atypical allele
T6 sequence (P06276 29-602 D98G): as the sequence (P06276 29-602) above, with D70G counted along it

[10] = biological target: serum and recombinant "atypical" BuChE (Homo sapiens, UniProt P06276, D98G); test: Inhibition by cocaine / α-solanine, "atypical" enzymes; type: biochemical; details: for activity of "atypical" enzyme at high α-solanine: concentrations higher than 5 μM, FIG. 3
Sequence of serum and recombinant "atypical" BuChE (P06276 29-602 D98G limits assumed): as the sequence (P06276 29-602) above, with D70G counted along it

[11] = biological target: T7, normal BuChE (serum and recombinant) (Homo sapiens, UniProt P06276); test: Inhibition by cocaine / α-solanine, normal enzymes; type: biochemical
T7 construct: made in house; host or cells: Xenopus oocytes (recombinant) and normal human serum (native), reported together
T7 sequence (P06276 29-602): as the sequence (P06276 29-602) above

Rec. AChE = biological target: T8, Rec. AChE (Homo sapiens, UniProt P22303); test: Inhibition by cocaine, recombinant AChE; type: biochemical
T8 construct: made in house; host or cells: Xenopus oocytes (injected ACHE DNA, CMV promoter)
T8 sequence (P22303 32-614): as the sequence (P22303 32-614) above

[12] = system: BuChE in sera from heterozygotes
[13] = system: patients suffering from mild to moderate AD; details: cited from earlier work
THA treated patients = details: in vivo, cited from earlier work
PD-patient = details: in vivo; cited from earlier work

CN(C)C(=O)Oc1cccc([N+](C)(C)C)c1 [neostigmine]
potency / affinity (ChE): potency equal to or greater than physostigmine

CNC(=O)Oc1ccc2c(c1)[C@]1(C)CCN(C)[C@@H]1N2C [physostigmine]
inactivation rate compared with AChE (recombinant normal BuChE): higher than or equal to ACHE | second order rate constant ki for inactivation (recombinant normal BuChE): 6330 ± 2670 M⁻¹ s⁻¹ | rate of irreversible inactivation versus normal [1]: much slower than its normal counterpart | spontaneous reactivation, % of original activity (recombinant human AChE): up to 90% | inactivation rate of "atypical" BuChE, compared ("atypical" BuChE [2]): considerably lower rates | higher IC50 value, "atypical" versus wild-type ("atypical" BuChE [3]): at least 10 fold | higher Ki value, "atypical" versus wild-type ("atypical" BuChE [3]): at least 10 fold | sensitivity of atypical variant to inhibitors ("atypical" BuChE [3]): much less sensitive | effect on cognitive functions (AD patients): small, short-term positive effect on cognitive functions

CCN(C)C(=O)Oc1cccc([C@H](C)N(C)C)c1 [SDZ ENA-713]
inactivation rate compared with AChE (recombinant normal BuChE): higher than or equal to ACHE | second order rate constant ki for inactivation (recombinant normal BuChE): 233 ± 50 M⁻¹ s⁻¹ | loss of activity (serum normal BuChE (D/D)): 95% | loss of activity [4]: 80% | decrease in activity ([1]; 30 minutes, "atypical" BuChE): about 40% | rate of irreversible inactivation versus normal [1]: much slower than its normal counterpart | spontaneous reactivation, % of original activity [5]: ≤ 8% | inactivation rate of "atypical" BuChE, compared ("atypical" BuChE [2]): considerably lower rates | second order rate constant ki for inactivation (AChE (E6)): 71.7 M⁻¹ s⁻¹ | second order rate constant ki for inactivation (AChE (E5)): 55 ± 10 M⁻¹ s⁻¹

C[C@H]1CC[C@@H]2[C@@H](C)[C@H]3[C@H](C[C@H]4[C@@H]5CC=C6C[C@@H](O[C@@H]7O[C@H](CO)[C@H](O)[C@H](O[C@@H]8O[C@H](CO)[C@@H](O)[C@H](O)[C@H]8O)[C@H]7O[C@@H]7O[C@@H](C)[C@H](O)[C@@H](O)[C@H]7O)CC[C@]6(C)[C@H]5CC[C@]34C)N2C1 [α-solanine]
IC50 (Rec. BuChE D/D (normal); Rec. BuChE D/D, read-out: IC50 α-solanine): 1.95 ± 1.04 µM | IC50 [6]: 3.54 ± 2.41 µM | IC50 ([7]; Rec. BuChE G/G, read-out: IC50 α-solanine): 171 µM | IC50 (Serum BuChE D/D (normal); Serum BuChE D/D, read-out: IC50 α-solanine): 2.88 ± 0.33 µM | IC50 [8]: 3.61 ± 0.81 µM | IC50 ([9]; Serum BuChE G/G, read-out: IC50 α-solanine): 165 µM | IC50 ([10]; "atypical"): 170 µM | IC50 difference for α-solanine ([10]; "atypical" vs normal): > 100 fold | activity of "atypical" enzyme at high α-solanine [10]: retains higher activity than the normal and the heterozygote enzymes | activity of "atypical" enzyme at high α-solanine ([10]; listed as α-solanidine): shows higher activities than the normal, D70 enzyme | inhibition of "atypical" enzyme by α-solanine ([10]; up to 10 μM): relatively inert | IC50 ([11]; normal, read-out: IC50 for α-solanine): 2.5 µM

COC(=O)[C@H]1[C@@H](OC(=O)c2ccccc2)C[C@@H]2CC[C@H]1N2C [cocaine]
IC50 (Rec. BuChE D/D (normal)): 280 ± 20 µM | IC50 [7]: 4050 ± 50 µM | IC50 (Serum BuChE D/D (normal)): 320 ± 80 µM | IC50 [9]: 5200 ± 300 µM | IC50 (Rec. AChE): 3450 ± 2150 µM | IC50 [11]: 300 µM

Nc1c2c(nc3ccccc13)CCCC2 [tacrine, 1,2,3,4-tetrahydro-9 aminoacridine]
effect of 1 μm of the drug [12]: intermediate levels of activity | improvement in AD ([13]; 30 weeks): statistically significant, dose-related improvements | serum level of the aminotransferase ([13]; in 2% of the cases): 20 times the upper limit of normal value | cases reaching 20 times the upper limit of normal aminotransferase ([13]; in vivo): 2% | serum level of the aminotransferase, usual ([13]; in vivo): less than three times the upper limit of normal value | patients with cholinergic side-effects / deficits (THA treated patients): up to 15% | patients with cholinergic side-effects / deficits (THA treated patients; listed as THA): over 10% | PD symptoms (PD-patient): worsening of the symptoms

CN(C)C(=O)Oc1cc(OC(=O)N(C)C)cc(C(O)CNC(C)(C)C)c1 (stereo not drawn) [bambuterol]
higher IC50 value, "atypical" versus wild-type ("atypical" BuChE [3]): at least 10 fold | higher Ki value, "atypical" versus wild-type ("atypical" BuChE [3]): at least 10 fold

— US6326139A (priority 1997, dated 2001)
